Test results from ChEMBL document CHEMBL5647684, “Expression of Src and FAK in hepatocellular carcinoma and the effect of Src inhibitors on hepatocellular carcinoma in vitro” (2009).

Columns and labels:
Type in all cases: functional
Huh-7 = test: Growth inhibition of human Huh-7 cells after 3 days by MTT assay; details: time 3 day; for GI50: Homo sapiens, Huh-7, 72 h
HepG2 = test: Growth inhibition of human HepG2 cells after 3 days by MTT assay; details: time 3 day; for GI50: Homo sapiens, HepG2, 72 h
PLC-PRF-5 = test: Growth inhibition of human PLC-PRF-5 cells after 3 days by MTT assay; details: time 3 day
Hep 3B2 = test: Growth inhibition of human Hep3B cells after 3 days by MTT assay; details: time 3 day

SMILES | GI50 (Huh-7) [µM] | GI80 (Huh-7) [µM] | GI50 (HepG2) [µM] | GI80 (HepG2) [µM] | GI50 (PLC-PRF-5; Homo sapiens, PLC-PRF-5, 72 h) [µM] | GI80 (PLC-PRF-5) [µM] | GI50 (Hep 3B2; Homo sapiens, Hep3B, 72 h) [µM] | GI80 (Hep 3B2) [µM]
Cc1nc(Nc2ncc(C(=O)Nc3c(C)cccc3Cl)s2)cc(N2CCN(CCO)CC2)n1 [DASATINIB ANHYDROUS] | 1.97 | 7.135 | > 50 | >50 |  |  |  | 
O=C(Cc1ccc(-c2ccc(OCCN3CCOCC3)cc2)cn1)NCc1ccccc1 [TIRBANIBULIN] | 0.009 | 0.023 | 0.06 | 3.658 | 0.013 | 0.024 | 0.026 | 0.088
